Results reported in patent publication US7122666B2, “Heteroaryl-substituted pyrrole derivatives, their preparation and their therapeutic uses” (Sankyo Company, Limited, priority 1999, dated 2006).

What was measured:
[1] = tested on: IL-1β production in human whole blood; assay: Inhibition of the production of IL-1β in vitro in human whole blood (Test Examples 1 and 1′); assay type: cell-based; settings: Table 8′, lipopolysaccharide 10 μg/ml, 6 hours at 37° C., plasma IL-1β by ELISA, least squares, read-out: Inhibitory Effect on IL-1β Production (in vitro) IC50
Protocol: (§1) Inhibition of the Production of the Cytokines IL-1β and TNFα in Vitro in Human Whole Blood
(§2) This test was performed according to the method of Hartman, et al. [D. A. Hartman, S. J. Ochalski and R. P. Carlson; The effects of anti-inflammatory and antiallergic drugs on cytokine release after stimulation of human whole blood by lipopolysaccharide and zymosan A: Inflamm. Res., 44, 269 (1995)].
(§3) Peripheral blood samples were collected in the presence of heparin from healthy adult volunteers. 1000 μl of whole blood were added to an Eppendorf tube to which 2 μl of a dimethyl sulfoxide solution of the test compound had been added in advance, after which 10 μl of lipopolysaccharide (E. coli 026: B6 origin, Difco) were added as a stimulant (final concentration of said lipopolysaccharide: 10 μg/ml). This was mixed well and then incubated for 6 hours at 37° C. in the presence of 5% CO2. At the end of the incubation, the mixture was cooled to 4° C. to stop the reaction, followed immediately by centrifuging for 5 minutes at 14,000 rpm to separate and collect the supernatant plasma. The IL-1β and TNFα produced and released into the plasma were measured using a commercially available enzyme immunoassay (ELISA) kit [Cayman (IL-1β) and Genzyme (TNFα)]. The procedure was also repeated in the absence of test compound. The inhibitory effect [IC50 (μM)] on the production of IL-1β and TNFα was determined from the amounts of the cytokines produced in the presence and absence of the test compound.
(§4) Inhibition of the Production of the Cytokines IL-1β and TNFα In Vitro in Human Whole Blood
as §3, with “O26:” for “026:”, “plasma” for “plasma.”, “kits” for “kit”, “determined by the method of least squares” for “determined”

TNFα production = assay: Inhibition of the production of TNFα in vivo (Test Examples 2 and 2′); settings: Table 9′; Balb/c mice, oral administration 30 minutes before intravenous lipopolysaccharide, plasma TNFα 1 hour after LPS
Protocol: This test was performed according to the method of Ochalski, et al. [S. J. Ochalski, D. A. Hartman, M. T. Belfast, T. L. Walter, K. B. Glaser and R. P. Carlson; Inhibition of endotoxin-induced hypothermia and serum TNF-α levels in CD-1 mice by various pharmacological agents: Agents Actions 39, C52–C54 (1993)].
The production of TNFα was induced in mice by the intravenous injection of lipopolysaccharide (E. coli O26: B6 origin, Difco) which was prepared to a concentration of 0.045 mg/ml using physiological saline. The saline preparation of lipopolysaccharide was administered at the rate of 10 ml/l kg of body weight into the caudal vein of Balb/c mice (males, age 5–7 weeks, body weight: approx. 22 g, Japan Charles River) which had been fasted overnight starting on the day before the experiment. One hour after administration, the mice were laparotomized under ether anaesthesia and blood was collected from the abdominal vena cava. Blood collection was performed using a 1 ml volume disposable syringe equipped with a 23G needle which had been moistened with heparin on the inside wall. Following blood collection, the blood was immediately transferred to a 1.5 ml volume Eppendorf tube and centrifuged at 4° C. and 14,000 rpm to separate the plasma. This plasma was then stored at −20° C. until measurement of TNFα. The measurement of the amount of TNFα was performed with a commercially available enzyme immunoassay (ELISA) kit (Mouse TNFα ELISA KIT, Genzyme).
To determine the inhibitory activity of the test compounds, each test compound was suspended in a 0.5% tragacanth solution and then administered orally to the Balb/c mice at the rate of 10 ml/1 kg of body weight 30 minutes before injection of lipopolysaccharide. The level of TNFα production was then determined as described above. In the control group, 0.5% tragacanth solution was administered at the rate of 10 ml/1 kg of body weight to the test mice instead of the solutions of the test compounds. A minimum of 3 dose levels of the test compound was administered to groups of 5 test mice for each test compound. The inhibitory rate relative to the control group was calculated for each dose level. From the inhibitory rates and the dosages, ID50 values were calculated by the least squares method.
The production of TNFα was induced in mice by the intravenous injection of lipopolysaccharide (E. coli O26: B6 origin, Difco) which was prepared to a concentration of 0.045 mg/ml using physiological saline. […]
To determine the inhibitory activity of the test compounds, each test compound was suspended in a 0.5% tragacanth solution and then administered orally to the Balb/c mice at the rate of 10 ml/1 kg of body weight 30 minutes before injection of lipopolysaccharide. The level of TNFα production was then determined as described above. […]

[2] = tested on: TNFα production in human whole blood; assay: Inhibition of the production of TNFα in vitro in human whole blood (Test Examples 1 and 1′); assay type: cell-based; settings: Table 7′, lipopolysaccharide 10 μg/ml, 6 hours at 37° C., plasma TNFα by ELISA, least squares, read-out: Inhibitory Effect on TNFα Production (in vitro) IC50
Protocol: as §1, §2, §3, §4
as §3, with “O26:” for “026:”, “plasma” for “plasma.”, “kits” for “kit”, “determined by the method of least squares” for “determined”

[3] = tested on: adjuvant-induced arthritis; assay: Activity in preventing the development of adjuvant-induced arthritis in vivo (Test Examples 4 and 4′); settings: Table 10′; Lewis rat, oral once a day from day 0 to day 20, inhibition of swelling of injected foot on day 21
Protocol: The test was performed according to the method described by Winder et al. (Arthritis Rheum., 12, 472–482, 1969). Heat-killed dried Mycobacterium butyricum (Difco Laboratories, Lot 679123) was ground on an agate mortar, and was then suspended in dry-sterilised liquid paraffin (first grade, Wako Pure Chemical Industries, Ltd.) to make a 2 ml suspension. The resulting suspension was then sonicated and used as an adjuvant. Arthritis was induced by the intradermal injection of the adjuvant (100 μg of heat killed dried bacterium/0.05 ml of paraffin/paw) into the heel of the right hind paw of a Lewis rat (male, age 8 weeks, Japan Charles River). […] The volumes of the swollen feet (adjuvant-injected right hind foot volume—non-injected left hind foot volume) were calculated. The percent inhibition of swelling of the injected foot of the treated animals as compared to that of the control animals on day 21 was calculated as follows. […] ID50 values were calculated using this curve. […] […]

Structure (SMILES) | IC50 [1] [nM] | Inhibitory Effect on TNFα Production (in vivo) IC50 (TNFα production) [mg/kg] | IC50 [2] [nM] | Activity in Preventing the Development of Adjuvant-Induced Arthritis in vivo IC50 [3] [mg/kg]
CCC[C@H]1C[C@H]2C=C(c3c[nH]c(-c4ccc(F)cc4)c3-c3ccncc3)CCN2C1 [Example 43′, 2-(4-Fluorophenyl)-4-[(2S,8aS)-2-propyl-1,2,3,5,6,8a-hexahydroindolizin-7-yl]-3-(pyridin-4-yl)-1H-pyrrole] | 8 | 0.40 | 6 | –
CC1=CC2C=C(c3c[nH]c(-c4ccc(F)cc4)c3-c3ccncc3)CCN2C1 (stereo in doubt) [Example 31′, 2-(4-Fluorophenyl)-4-[(8aS)-2-methyl-3,5,6,8a-tetrahydroindolizin-7-yl]-3-(pyridin-4-yl)-1H-pyrrole] | 4.6 | 0.36 | 2.4 | –
CC[C@H]1C[C@H]2C=C(c3c[nH]c(-c4ccc(F)cc4)c3-c3ccncc3)CCN2C1 [Example 32′, 4-[(2S,8aS)-2-Ethyl-1,2,3,5,6,8a-hexahydroindolizin-7-yl)-2-(4-fluorophenyl)-3-(pyridin-4-yl)-1H-pyrrole] | 2.7 | 0.61 | 4.5 | –
Fc1ccc(-c2[nH]cc(C3=C[C@@H]4C[C@H](c5ccccc5)CN4CC3)c2-c2ccncc2)cc1 [Example 12′, 2-(4-Fluorophenyl)-4-[(2R,8aS)-2-phenyl-1,2,3,5,6,8a-hexahydroindolizin-7-yl]-3-(pyridin-4-yl)-1H-pyrrole] | 2.6 | – | 2.5 | 2.1
